# Test results published in patent publication US7132453B2, “Method of using prostacyclin to treat respiratory syncytial virus infections” (Vanderbilt University, priority 2002, dated 2006).
# Entries after “also recorded” stand apart in the source; their conditions may differ. Like-named read-outs stand apart in the source and are kept apart here.
# What was measured:
# vaccinia virus = details: BALB/c mice; cited from earlier work
# RSV = assay: Indomethacin in drinking water in RSV-infected BALB/c mice (weight loss curve); format: in vivo
# Source text: Genetically altered mice having the BALB/c background were obtained from Charles Rivers Laboratories, 251 Ballardvale Street,. Wilmington, Mass. 01887-1000. Modification to the level of PGI2 was accomplished by introducing indomethacin to the BALB/c mice. Indomethacin is a drug that is used to treat arthritis and other rheumatologic conditions and inhibits the activity of both COX-1 and COX-2 such that the formation of prostanoids, specifically PGI2, are not produced. Indomethacin is given to the mice in their drinking water in order to block the cyclooxygenase enzymes in order to determine the effect of the cyclooxygenase pathway on the immune response to RSV infection. Indomethacin is commercially available from Sigma, Inc. St. Louis, Mo.
# As best seen in FIG. 4, mice treated with indomethacin have a much difference weight loss curve. Within the experiment, BALB/c mice were provided water having indomethacin, 30 micrograms/ml.
# Female BALB/c mice that are 8–10 weeks of age and that weigh approximately 20 grams were used to determine the amount of weight loss that results from an RSV infection. The BALB/c mice were infected with RSV strain A as described in Example 1. Subsequent to infection, the mice received water in their drinking bottles to drink during the course of an infection. On day 5, the mice started to lose weight and the peak of illness as measured by maximal weight loss occurred on day 9. […] These mice then recovered and were fully back to baseline by day 19 after infection. FIG. 3 is an example of a typical body weight curve that occurs with RSV induced illness. On the Y-axis is the body weight as a percentage of the pre-infection weight. This curve is very reproducible although factors such as the strain of the mouse and the viral load administered can alter the severity and duration of illness.
# [1] = cited from earlier work
# RSV strain A = assay: UT-15 by subcutaneous micro-infusion pump in RSV-infected BALB/c mice (mortality, body weight); format: in vivo; details: for survival percentage: FIG. 7
# Source text: The genetically altered mice and control mice were anesthetized with ketamine and xylazine, as described in Peebles, et al., 2001, J. Med. Virol. 63:178–88, which is incorporated herein by reference. The mice were intranasally infected with 10^7 pfu of RSV strain A. American Type Culture Collection, Manassas, Va.
# In order to insert a micro-infusion pump into a mouse, the skin of the back, slightly posterior to the scapulae will be shaved and washed with ethanol. Subcutaneous implantation is technically the easiest and least invasive procedure. The usual site for subcutaneous implantation of Azlet pumps in mice is on the back, slightly posterior to the scapulae. Pumps are commercially available at: Alzet Osmotic Pumps, Durect Corporation, P.O. Box 530, Cupertino, Calif. 95015-0530. Absorption of the compound placed in the pump by local capillaries results in systemic administration. For subcutaneous pump implantation, the following steps are performed:
# A micro-infusion pump system was inserted into a mouse as previously described in Example 8. After the micro-infusion pump was in place, UT-15 was administered subcutaneously for two weeks starting on the day prior to infection. The BALB/c mice received either different concentrations of UT-15 or water only, as indicated below. BALB/c mice were infected with RSV strain A as described in Example 1. There were 8–10 mice per group. The weight of each mouse was monitored on a daily basis. The mice were put on a scale to measure their weight.
# Mice having received micro-infusion pumps received infusion of either water of some concentration of UT-15 for a period of 2 weeks after starting the day prior to RSV infection. […] Also shown are the percentage of body weight for each of the animals on each given day for the other animals either receiving no UT-15 or other concentrations of UT-15.
# [2] = in vivo; cited from earlier work
# [3] = indomethacin 30 micrograms/ml in drinking water, FIG. 4
structure (smiles),measurement,setting,value
COc1ccc2c(c1)c(CC(=O)O)c(C)n2C(=O)c1ccc(Cl)cc1 [indomethacin],mortality from vaccinia virus infection vs non-treated mice,vaccinia virus,marked increase in mortality
same,effect on RSV-induced illness,RSV; FIG. 4 legend,exacerbates and delays recover from RSV-induced illness
same,day of peak illness (weight loss),RSV; [3],11 days
same,recovery of body weight after RSV infection,RSV; [3],did not recover their weight
CC(=O)Oc1ccccc1C(=O)O [aspirin],mortality from vaccinia virus infection vs non-treated mice,vaccinia virus,marked increase in mortality
CCCCC[C@H](O)CC[C@@H]1[C@H]2Cc3cccc(OCC(=O)O)c3C[C@H]2C[C@H]1O [UT-15],safety of administration to patients,[1]; in vivo,safely used
same,protection against RSV-induced mortality (percent survival),"RSV strain A; FIG. 7 legend and summary text, 2.0 and 20 ng/kg/min vs none",protects against RSV-induced mortality; also recorded: increase percentage of survival
same,protection against RSV-induced illness (percent of body weight),"RSV strain A; FIG. 8 legend, 20, 30, 40 ng/kg/min vs none",protects against RSV-induced illness
same,recovery period of the surviving mice vs mice without UT-15,RSV strain A; UT-15 2.0 ng/kg/min,the recovery period was quicker
same,survival percentage,RSV strain A; UT-15 2.0 ng/kg/min subcutaneous for two weeks from the day prior to infection,next best survival percentage
same,survival percentage,RSV strain A; UT-15 20 ng/kg/min subcutaneous for two weeks from the day prior to infection,best survival percentage
same,recovery period for body weight,"RSV strain A; UT-15 20 ng/kg/min, compared with 0, 30 and 40 ng/kg/min, FIG. 8",quickest recovery period for body weight
CC#CCC(C)[C@H](O)/C=C/[C@@H]1[C@H]2C/C(=C/CCCC(=O)O)C[C@H]2C[C@H]1O (stereo partly drawn) [Iloprost],safety of administration to patients,"[1]; iloprost: long-term, pulmonary hypertension patients, UT-15: patients treated for another disease",safe
same,share of oral iloprost reaching the systemic circulation,[2],less than 20%
CCCCC[C@H](O)/C=C/[C@@H]1[C@H]2C/C(=C/CCCC(=O)O)O[C@H]2C[C@H]1O [Epoprostenol],side effects,"[1]; in vivo, iv","flushing, headache, chest pain, sweating, flu-like symptoms, nausea, vomiting, and systemic hypotension"
